Test results as given in patent US9073821B2, “Hydroxamic acid derivative” (priority 2010, dated 2015).

Target: Pseudomonas aeruginosa LpxC enzyme (Pseudomonas aeruginosa (strain ATCC 15692 / DSM 22644 / CIP 104116 / JCM 14847 / LMG 12228 / 1C / PRS 101 / PAO1), UniProt P47205)
Test: biochemical
Format: biochemical
Settings: inhibitory activity on Pseudomonas aeruginosa LpxC enzyme, class symbols A/B/C; read-out: Enzyme inhibitory activity
Description: Test 1: Evaluation of the Inhibitory Activity on Pseudomonas aeruginosa LpxC Enzyme
An inhibition curve was constructed for each test compound by performing the aforementioned reaction at varying concentrations of the test compound. From this inhibition curve, the concentration of the test compound at which the formation of the reaction product was suppressed by 50% was determined as the IC50 of the test compound, which was an index for the inhibitory activity on Pseudomonas aeruginosa LpxC enzyme.

SMILES: CNC(=O)C(C(=O)NO)N(C)C(=O)c1ccc(-c2ccc(OCc3cccc(CN4CCOCC4)c3)cc2)cc1 (stereo not shown) [Compound 87, N-hydroxy-N′-methyl-2-{methyl[(4′-{[3-(morpholin-4-ylmethyl)benzyl]oxy}biphenyl-4-yl)carbonyl]amino}propanediamide]
- IC50: < 10 nM

SMILES: CNC(=O)C(C(=O)NO)N(C)C(=O)c1ccc(-c2ccc(OCCCN3CC(C)OC(C)C3)cc2)cc1 (stereo not shown) [Compound 88, 2-[({4′-[3-(2,6-dimethylmorpholin-4-yl)propoxy]biphenyl-4-yl}carbonyl)(methyl)amino]-N-hydroxy-N′-methylpropanediamide]
- IC50: < 10 nM

SMILES: CNC(=O)C(C(=O)NO)N(C)C(=O)c1ccc(-c2ccc(OCCN(C)c3ccccc3)cc2)cc1 (stereo not shown) [Compound 89, N-hydroxy-N′-methyl-2-{methyl[(4′-{2-[methyl(phenyl)amino]ethoxy}biphenyl-4-yl)carbonyl]amino}propanediamide]
- IC50: < 10 nM

SMILES: CNC(=O)C(C(=O)NO)N(C)C(=O)c1ccc(-c2ccc(OCc3ccc(N4CCN(C)CC4)cc3)cc2)cc1 (stereo not shown) [Compound 90, N-hydroxy-N′-methyl-2-{methyl[(4′-{[4-(4-methylpiperazin-1-yl)benzyl]oxy}biphenyl-4-yl)carbonyl]amino}propanediamide]
- IC50: < 10 nM

SMILES: CNC(=O)C(C(=O)NO)N(C)C(=O)c1ccc(-c2ccc(OCc3ccc(CN4CCOCC4)cc3)cc2)cc1 (stereo not shown) [Compound 91, N-hydroxy-N′-methyl-2-{methyl[(4′-{[4-(morpholin-4-ylmethyl)benzyl]oxy}biphenyl-4-yl)carbonyl]amino}propanediamide]
- IC50: < 10 nM

SMILES: CNC(=O)C(C(=O)NO)N(C)C(=O)c1ccc(-c2ccc(OCCCN(C)Cc3c(F)cccc3F)cc2)cc1 (stereo not shown) [Compound 92, 2-{[(4′-{3-[(2,6-difluorobenzyl)(methyl)amino]propoxy}biphenyl-4-yl)carbonyl](methyl)amino}-N-hydroxy-N′-methylpropanediamide]
- IC50: < 10 nM

SMILES: CNC(=O)C(C(=O)NO)N(C)C(=O)c1ccc(-c2ccc(OCc3ccc(-c4nnn[nH]4)cc3)cc2)cc1 (stereo not shown) [Compound 93, N-hydroxy-N′-methyl-2-{methyl[(4′-{[4-(1H-tetrazol-5-yl)benzyl]oxy}biphenyl-4-yl)carbonyl]amino}propanediamide]
- IC50: 10 to 100 nM

SMILES: CNC(=O)C(C(=O)NO)N(C)C(=O)c1ccc(-c2ccc(OCC3(C)COC3)cc2)cc1 (stereo not shown) [Compound 95, N-hydroxy-N′-methyl-2-[methyl({4′-[(3-methyloxetan-3-yl)methoxy]biphenyl-4-yl}carbonyl)amino]propanediamide]
- IC50: < 10 nM

SMILES: CNC(=O)C(C(=O)NO)N(C)C(=O)c1ccc(-c2ccc(OCCCn3ccnc3)cc2)cc1 (stereo not shown) [Compound 96, N-hydroxy-2-[({4′-[3-(1H-imidazol-1-yl)propoxy]biphenyl-4-yl}carbonyl)(methyl)amino]-N′-methylpropanediamide]
- IC50: < 10 nM

SMILES: CNC(=O)C(C(=O)NO)N(C)C(=O)c1ccc(-c2ccc(NCCCN(C)Cc3ccccc3)cc2)cc1 (stereo not shown) [Compound 97, 2-[{[4′-({3-[benzyl(methyl)amino]propyl}amino)biphenyl-4-yl]carbonyl}(methyl)amino]-N-hydroxy-N′-methylpropanediamide]
- IC50: 10 to 100 nM

SMILES: CNC(=O)C(C(=O)NO)N(C)C(=O)c1ccc(-c2ccc(OCc3ccc(C(=O)O)cc3)cc2)cc1 (stereo not shown) [Compound 98, 4-{[(4′-{[1-(hydroxyamino)-3-(methylamino)-1,3-dioxopropan-2-yl](methyl)carbamoyl}biphenyl-4-yl)oxy]methyl}benzoate]
- IC50: 10 to 100 nM

SMILES: CNC(=O)C(C(=O)NO)N(C)C(=O)c1ccc(-c2ccc(OCc3coc(C)n3)cc2)cc1 (stereo not shown) [Compound 99, N-hydroxy-N′-methyl-2-[methyl({4′-[(2-methyl-1,3-oxazol-4-yl)methoxy]biphenyl-4-yl}carbonyl)amino]propanediamide]
- IC50: < 10 nM

SMILES: CNC(=O)C(C(=O)NO)N(C)C(=O)c1ccc(-c2ccc(NCCCNc3ccccc3)cc2)cc1 (stereo not shown) [Compound 100, N-hydroxy-N′-methyl-2-{methyl[(4′-{[3-(phenylamino)propyl]amino}biphenyl-4-yl)carbonyl]amino}propanediamide]
- IC50: < 10 nM
